The values below come from paper PMC4300089, “Structure-Guided Design of Selective Epac1 and Epac2 Agonists” (PLoS Biology, 2015).

The target of one test is T1, Epac2^fl (Mus musculus, UniProt Q9EQZ6).
T1 sequence (Q9EQZ6 1-993 isoform Q9EQZ6-3): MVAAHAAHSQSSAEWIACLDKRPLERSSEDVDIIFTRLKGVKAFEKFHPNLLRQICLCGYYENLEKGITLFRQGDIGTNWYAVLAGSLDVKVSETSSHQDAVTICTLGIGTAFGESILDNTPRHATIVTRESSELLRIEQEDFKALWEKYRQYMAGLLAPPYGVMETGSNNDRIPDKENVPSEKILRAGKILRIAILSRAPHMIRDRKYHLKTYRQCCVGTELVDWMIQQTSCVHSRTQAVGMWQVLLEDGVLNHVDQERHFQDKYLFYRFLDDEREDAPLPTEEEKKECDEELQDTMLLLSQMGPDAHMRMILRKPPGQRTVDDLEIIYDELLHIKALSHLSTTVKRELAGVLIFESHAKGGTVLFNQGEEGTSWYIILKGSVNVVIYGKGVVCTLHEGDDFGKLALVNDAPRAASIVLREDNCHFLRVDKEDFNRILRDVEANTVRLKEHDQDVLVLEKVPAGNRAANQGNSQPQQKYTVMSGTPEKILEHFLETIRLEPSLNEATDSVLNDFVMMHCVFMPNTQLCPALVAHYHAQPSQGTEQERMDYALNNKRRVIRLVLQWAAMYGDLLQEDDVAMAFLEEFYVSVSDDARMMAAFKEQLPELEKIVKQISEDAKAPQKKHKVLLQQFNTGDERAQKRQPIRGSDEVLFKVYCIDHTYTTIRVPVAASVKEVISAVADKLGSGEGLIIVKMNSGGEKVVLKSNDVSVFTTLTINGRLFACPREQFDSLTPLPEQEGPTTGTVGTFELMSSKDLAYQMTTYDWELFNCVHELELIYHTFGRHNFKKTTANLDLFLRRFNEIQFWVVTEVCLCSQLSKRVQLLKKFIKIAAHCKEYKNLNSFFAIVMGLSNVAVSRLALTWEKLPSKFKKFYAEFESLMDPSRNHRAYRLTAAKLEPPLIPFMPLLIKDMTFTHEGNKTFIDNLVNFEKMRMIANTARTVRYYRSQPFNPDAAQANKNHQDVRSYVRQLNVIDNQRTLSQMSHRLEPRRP
The settings on record: footnote b, see also ref 11; cited from earlier work.

The next test addresses T2, Epac1^Q270K (Homo sapiens, UniProt O95398, Q312K).
T2 construct: made in house
T2 sequence (O95398 150-881 isoform O95398-3 Q270K): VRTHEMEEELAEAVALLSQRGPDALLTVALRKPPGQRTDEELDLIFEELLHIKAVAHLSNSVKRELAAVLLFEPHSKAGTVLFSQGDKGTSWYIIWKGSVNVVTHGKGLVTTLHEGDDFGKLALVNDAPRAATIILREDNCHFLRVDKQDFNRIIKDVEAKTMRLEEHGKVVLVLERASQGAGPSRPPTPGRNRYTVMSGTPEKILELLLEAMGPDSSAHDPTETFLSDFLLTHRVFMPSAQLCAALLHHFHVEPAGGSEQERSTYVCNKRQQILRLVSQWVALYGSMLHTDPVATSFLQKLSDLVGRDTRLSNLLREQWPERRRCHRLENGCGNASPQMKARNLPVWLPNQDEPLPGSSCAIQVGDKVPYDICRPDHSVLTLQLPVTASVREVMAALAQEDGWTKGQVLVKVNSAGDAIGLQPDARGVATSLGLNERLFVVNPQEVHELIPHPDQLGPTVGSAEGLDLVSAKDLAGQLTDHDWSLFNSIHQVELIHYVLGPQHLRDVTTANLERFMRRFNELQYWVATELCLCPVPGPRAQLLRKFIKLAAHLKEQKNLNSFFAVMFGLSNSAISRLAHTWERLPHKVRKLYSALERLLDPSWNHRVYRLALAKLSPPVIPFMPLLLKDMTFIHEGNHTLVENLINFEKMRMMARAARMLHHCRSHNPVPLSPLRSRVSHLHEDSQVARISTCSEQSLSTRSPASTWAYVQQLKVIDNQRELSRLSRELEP
The test is described as follows: Epac activation assay, Epac1 Q270K mutant. The test is classed as biochemical.

Another test has as its target T3, Epac2^Δ280,K405Q (Mus musculus, UniProt Q9EQZ6, K423Q).
T3 construct: made in house
T3 sequence (Q9EQZ6 281-993 isoform Q9EQZ6-3 K405Q): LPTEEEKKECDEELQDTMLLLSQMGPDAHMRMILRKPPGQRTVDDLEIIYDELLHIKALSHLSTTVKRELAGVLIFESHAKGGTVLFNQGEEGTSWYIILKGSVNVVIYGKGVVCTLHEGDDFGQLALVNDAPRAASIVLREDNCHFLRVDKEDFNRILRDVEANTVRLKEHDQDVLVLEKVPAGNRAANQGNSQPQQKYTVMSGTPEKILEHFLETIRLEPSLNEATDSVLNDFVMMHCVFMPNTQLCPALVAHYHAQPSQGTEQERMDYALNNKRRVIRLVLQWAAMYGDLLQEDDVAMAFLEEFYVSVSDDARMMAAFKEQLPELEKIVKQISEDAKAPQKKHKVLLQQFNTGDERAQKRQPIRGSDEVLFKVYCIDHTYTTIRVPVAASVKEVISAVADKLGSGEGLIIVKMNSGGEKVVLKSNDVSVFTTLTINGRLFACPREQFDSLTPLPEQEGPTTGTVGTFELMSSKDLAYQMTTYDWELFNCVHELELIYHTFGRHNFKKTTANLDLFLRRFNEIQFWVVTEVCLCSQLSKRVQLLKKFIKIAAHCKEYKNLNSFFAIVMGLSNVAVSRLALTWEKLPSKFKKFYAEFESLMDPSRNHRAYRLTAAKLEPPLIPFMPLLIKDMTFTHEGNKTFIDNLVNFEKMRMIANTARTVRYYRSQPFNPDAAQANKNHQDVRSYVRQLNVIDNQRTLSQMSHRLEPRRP
The test is described as follows: Epac activation assay, Epac2 K405Q mutant. The format is biochemical. Here is the method: Murine Epac2 was used as all previous structural studies were performed with it.
The activity of Epac was determined by a fluorescence assay. […] The fluorescence intensity of Rap1B•mGDP is approximately twice that of free mGDP, and thus, nucleotide exchange can be observed as a decay in fluorescence upon the addition of excess unlabeled GDP.

As to `Nc1ncnc2c1ncn2[C@@H]1O[C@@H]2COP(=O)(O)O[C@H]2[C@H]1O` [cAMP, reference compound], the Rel. kmax on Epac2^fl was 1.0^b.
Take `COC1C2OP(=O)(O)OCC2OC1n1c(Sc2ccc(Cl)cc2)nc2c(N)ncnc21` [D-007, 8-pCPT-2′-O-Me-cAMP, reference compound]: the “activation” value at Epac1^Q270K is “poorly activated”; on Epac2^Δ280,K405Q, “efficiently activated”.
